Data published in patent EP2261259B1, “Immunoassay for N-(3-chlorophenyl)piperazine-based anti-depressants” (Randox Laboratories Ltd., priority 2009, dated 2010).
≈ marks a conversion by molar mass, not a printed value.

Test system: antibody of the invention
Test: Competitive ELISA (antibody-coated microtitre plate, hapten-HRP conjugate, TMB, absorbance at 450 nm)
Assay type: binding, sheep
Conditions: for %CR: percentage cross-reactivity based on 100% specificity to nefazodone; for %B/B0: B0 = absorbance at 0 ng/ml; for A450: absorbance at 450 nm; for IC50: standard concentration which produces 50% B/B0
Description: The process of developing an immunoassay is well known to the person skilled in the art. […] The serum from the immunised animal is collected when the antibody titre is sufficiently high. A conjugate is added to a sample containing the target analyte and the raised antibodies, and the conjugate and analyte compete for binding to the antibodies. The process may comprise fixing said serum antibodies to a backing substrate such as a polystyrene solid support or a biochip. The antibodies can be polyclonal or monoclonal. The signal emitted in the immunoassay is proportionate to the amount of conjugate bound to the antibodies which in turn is inversely proportionate to the analyte concentration. The signal can be detected or quantified by comparison with a calibrator.
The resulting immunogens were administered separately to adult sheep on a monthly basis to provide target-specific polyclonal antisera. IgG was extracted from the antisera via Caprylic acid/ammonium sulphate precipitation of immunoglobulin. Microtitre plates (Thermo Scientific, 95029180) were coated with antibody (125µl) in coating buffer (10mM Tris pH 8.5) at 37°C for 2 hours. Antibody was coated at 2.5µg/ml. The plates were then washed. […] The plates were then washed and 125µl of TMB (Randox, 4380-15) was added to each well and left at room temperature for 20mins in the dark. The reaction was stopped using 125µl of 0.2M sulphuric acid. The absorbancies were read at 450nm with an ELISA microplate reader (BIO-TEK Instruments, EL340) and the means calculated. Antibody specificity and sensitivity were then determined

[1] = standard concentration 0.156 ng/ml
[2] = standard concentration 0.313 ng/ml
[3] = standard concentration 0.625 ng/ml
[4] = standard concentration 1.250 ng/ml
[5] = standard concentration 2.500 ng/ml
[6] = standard concentration 5.000 ng/ml
[7] = standard concentration 10.000 ng/ml

| SMILES | %CR [%] | %B/B0 [1] [%] | A450 [1] | %B/B0 [2] [%] | A450 [2] | %B/B0 [3] [%] | A450 [3] | %B/B0 [4] [%] | A450 [4] | %B/B0 [5] [%] | A450 [5] | %B/B0 [6] [%] | A450 [6] | %B/B0 [7] [%] | A450 [7] | IC50 [ng/mL] |
| --- | --- | --- | --- | --- | --- | --- | --- | --- | --- | --- | --- | --- | --- | --- | --- | --- |
| CCc1nn(CCCN2CCN(c3cccc(Cl)c3)CC2)c(=O)n1CCOc1ccccc1 [Nefazodone, 2-{3-[4-(3-chlorophenyl)-1-piperazinyl]propyl}-5-ethyl-4-(2-phenoxyethyl)-1,2,4-triazol-3-one] | 100 | 91 | 1.850 | 83 | 1.671 | 73 | 1.467 | 58 | 1.168 | 46 | 0.923 | 34 | 0.683 | 24 | 0.494 | 3.901 (≈ 0.0083 µM) |
| O=c1n(CCCN2CCN(c3cccc(Cl)c3)CC2)nc2ccccn12 [Trazodone, 2-{3-[4-(3-chlorophenyl)-1-piperazinyl]propyl}-[1,2,4]triazolo[4,3-a]pyridin-3(2H)-one] | 733 | 67 | 1.456 | 58 | 1.271 | 48 | 1.041 | 35 | 0.763 | 25 | 0.551 | 18 | 0.398 | 13 | 0.287 | – |
| Clc1cccc(N2CCNCC2)c1 [mCPP, N-(3-chlorophenyl)piperazine] | 46 | 85 | 1.821 | 79 | 1.679 | 72 | 1.534 | 65 | 1.380 | 55 | 1.183 | 48 | 1.027 | 42 | 0.888 | 8.476 (≈ 0.0431 µM) |
